# Data: patent publication US20250144247A1, “FORMULATIONS TO ENHANCE THE DELIVERY OF GENE THERAPY VECTORS” (priority 2023, published 2025)
# How the values were obtained:
# [1] = test system: human airway epithelial cells (HAE); experiment: Transepithelial electrical resistance (TEER) of HAE after apical reagent; type: cell-based; details: apical 5 minutes; LPC 0.1%, EGTA 250 mM, doxorubicin 5 μM, NaCl 3.6%, Infasurf 35 mg/ml
# Method: The University of Iowa In Vitro Models and Cell Culture Core cultured and maintained human airway epithelial cells (HAE) as previously described (33). Briefly, following enzymatic disassociation of trachea and bronchus epithelia, the cells were seeded onto collagen-coated, polycarbonate transwell inserts (0.4 μm pore size; surface area=0.33 cm^2; Corning Costar, Cambridge, MA). HAE were submerged in Ultroser G (USG) medium for 24 hours (37° C. and 5% CO2) at which point the apical media is removed to encourage polarization and differentiation at an air-liquid interface. Transepithelial electrical resistance was measured using an Ohmmeter […]
# Disrupting the epithelial tight junctions allows Ad5-based viral vectors access to their basolaterally localized coxsackie and adenovirus receptor (CXADR) (12). Unless otherwise specified, these studies use the Ad5 serotype. […] First, reagents were applied to the apical surface of HAE for 5 minutes and then TEER was measured using an ohmmeter. […] In separate cultures, Ad-GFP (MOI=250) in 50 μl of DMEM combined 1:1 with the test reagents was applied to the apical surface for 2 hours. 5 days post-treatment, cells were imaged by fluorescence microscopy.
# [2] = test system: human airway epithelial cells (HAE); type: cell-based; details: for Ad gene transfer: Ad-GFP MOI=250 combined 1:1 with reagent, apical 2 hours, imaged 5 days, LPC 0.1%, EGTA 250 mM, doxorubicin 5 μM, NaCl 3.6%, Infasurf; for Ad-GFP gene transfer at 1-7% tonicities: Ad-GFP MOI=250, apical 2 h, 5 days
# [3] = test system: human airway epithelia (HAE); experiment: Endosomal acidification inhibitors on NaCl enhanced Ad5-GFP transduction; type: cell-based; details: pre-treated 2 h with CQ 200 μM or bafilomycin A1 1 μM; Ad5-GFP MOI=250 with NaCl 3.6%
# From the text: GFP expression was quantified by flow cytometry 5 days later. […] GFP was quantified 5 days post-transduction.
# [4] = Osmolarity and pH of the solutions; type: physicochemical
molecule,measurement,setting,value
COc1cccc2c1C(=O)c1c(O)c3c(c(O)c1C2=O)C[C@@](O)(C(=O)CO)C[C@@H]3O[C@H]1C[C@H](N)[C@H](O)[C@H](C)O1 [doxorubicin],transepithelial electrical resistance (TEER),[1],decreased TEER
same,Ad gene transfer,[2],did not enhance Ad gene transfer
CCN(CC)CCCC(C)Nc1ccnc2cc(Cl)ccc12 (stereo not shown) [chloroquine],NaCl enhanced Ad5-GFP transduction after inhibitor,[3],significantly decreased
"[Cl-].[K+] [KCl, potassium chloride]",Osmolarity,[4]; 1% solution,268 mOsmol/l
same,Osmolarity,[4]; 2% solution,537 mOsmol/l
same,Osmolarity,[4]; 3% solution,805 mOsmol/l
same,Osmolarity,[4]; 3.6% solution,970 mOsmol/l
same,Osmolarity,[4]; 4% solution,1073 mOsmol/l
same,Osmolarity,[4]; 5% solution,1341 mOsmol/l
same,Osmolarity,[4]; 6% solution,1610 mOsmol/l
same,Osmolarity,[4]; 7% solution,1878 mOsmol/l
same,Ad-GFP gene transfer at 1-7% tonicities,[2],Dose-dependent increases
OC[C@@H](O)[C@@H](O)[C@H](O)[C@H](O)CO [mannitol],Osmolarity,[4]; 1% solution,55 mOsmol/l
same,Osmolarity,[4]; 2% solution,110 mOsmol/l
same,Osmolarity,[4]; 3% solution,170 mOsmol/l
same,Osmolarity,[4]; 4% solution,220 mOsmol/l
same,Osmolarity,[4]; 5% solution,270 mOsmol/l
same,Osmolarity,[4]; 6% solution,330 mOsmol/l
same,Osmolarity,[4]; 7% solution,380 mOsmol/l
same,Ad-GFP gene transfer at 1-7% tonicities,[2],did not enhance gene transfer
O=C(O)CN(CCOCCOCCN(CC(=O)O)CC(=O)O)CC(=O)O [EGTA],transepithelial electrical resistance (TEER),[1],reduced TEER
same,Ad gene transfer,[2],increased gene transfer
lysophosphatidylcholine [LPC],transepithelial electrical resistance (TEER),[1],reduced TEER
same,Ad gene transfer,[2],increased gene transfer
"O=C([O-])[C@H](O)[C@@H](O)[C@H](O)[C@H](O)CO.[Na+] [NaGluconate, sodium gluconate]",Osmolarity,[4]; 3.6% solution,120 mOsmol/l
N-methyl-d-glucamine gluconate [NMDG gluconate],Osmolarity,[4]; 1% solution,342 mOsmol/l
same,Osmolarity,[4]; 2% solution,684 mOsmol/l
same,Osmolarity,[4]; 3% solution,1027 mOsmol/l
same,Osmolarity,[4]; 4% solution,1369 mOsmol/l
same,Osmolarity,[4]; 5% solution,1711 mOsmol/l
same,Osmolarity,[4]; 6% solution,2053 mOsmol/l
same,Osmolarity,[4]; 7% solution,3693 mOsmol/l
same,Ad-GFP gene transfer at 1-7% tonicities,[2],Dose-dependent increases
CO/C1=C\C(C)=C\[C@@H](C)[C@@H](O)[C@@H](C)C/C(C)=C/C=C/[C@H](OC)[C@@H]([C@@H](C)[C@@H](O)[C@H](C)[C@@]2(O)C[C@@H](O)[C@H](C)[C@@H](C(C)C)O2)OC1=O [bafilomycin A1],NaCl enhanced Ad5-GFP transduction after inhibitor,[3],significantly decreased
